From ChEMBL document CHEMBL1124718, “Synthesis and structure-activity relationship of C5-substituted analogues of (+-)-10,11-dihydro-5H-dibenzo[a,d]cyclohepten-5,10-imine [(+-)-desmethyl-MK801]: ligands for the NMDA receptor-coupled phencyclidine binding site” (J Med Chem, 1990)

Target: Glutamate receptor ionotropic, NMDA 1 (Rattus norvegicus, UniProt P35439)
Experiment: Ability to displace [3H]TCP from high affinity PCP N-methyl-D-aspartate glutamate receptor in rat brain homogenates in vitro was determined
Assay type: tissue-based

Row | Compound | Ki
1 | c1ccc2c(c1)CC1NC2c2ccccc21 (configuration not stated) | 120 nM
2 | IC12NC(Cc3ccccc31)c1ccccc12 (configuration not stated) | 430 nM
3 | BrCC12NC(Cc3ccccc31)c1ccccc12 (configuration not stated) | 33 nM
4 | COCC12NC(Cc3ccccc31)c1ccccc12 (configuration not stated) | 300 nM
5 | NCCC12NC(Cc3ccccc31)c1ccccc12 (configuration not stated) | 20 nM
6 | ClCC12NC(Cc3ccccc31)c1ccccc12 (configuration not stated) | 12 nM
7 | NC(=O)C12NC(Cc3ccccc31)c1ccccc12 (configuration not stated) | 11300 nM
8 | CCCC12NC(Cc3ccccc31)c1ccccc12 (configuration not stated) | 1100 nM
9 | NCC12NC(Cc3ccccc31)c1ccccc12 (configuration not stated) | 117 nM
10 | CCCCCCC12NC(Cc3ccccc31)c1ccccc12 (configuration not stated) | 980 nM
11 | N#CCC12NC(Cc3ccccc31)c1ccccc12 (configuration not stated) | 967 nM
12 | CCC12NC(Cc3ccccc31)c1ccccc12 (configuration not stated) | 12 nM
13 | O=C(O)C12NC(Cc3ccccc31)c1ccccc12 (configuration not stated) | 32300 nM
14 | OCC12NC(Cc3ccccc31)c1ccccc12 (configuration not stated) | 40 nM
15 | c1ccc(COCC23NC(Cc4ccccc42)c2ccccc23)cc1 (configuration not stated) | 10000 nM
16 | C=CCC12NC(Cc3ccccc31)c1ccccc12 (configuration not stated) | 70 nM
17 | CCCCCCCCCCC12NC(Cc3ccccc31)c1ccccc12 (configuration not stated) | 21600 nM
